Laboratory results as given in paper PMC5740485 (Biochemistry, 2017).
Several values for one entry are separate records, joined by “and”; a condition that tells them apart may be missing. Equal values may be shown once. Entries after “also recorded” stand apart in the source; their conditions may differ. Read-outs that look alike come from different tables or passages of the source.

Tests used:
[1] = target: T1, E. coli dihydrofolate reductase (ecDHFR) (Escherichia coli, UniProt P0ABQ4); format: binding; conditions: 0.1 mM ecDHFR; for ILOE signals with metformin (co-binding): 5 mM of each ligand (Fenbufen 2 mM), pH 6.8, 25 °C
T1 sequence (P0ABQ4 1-159): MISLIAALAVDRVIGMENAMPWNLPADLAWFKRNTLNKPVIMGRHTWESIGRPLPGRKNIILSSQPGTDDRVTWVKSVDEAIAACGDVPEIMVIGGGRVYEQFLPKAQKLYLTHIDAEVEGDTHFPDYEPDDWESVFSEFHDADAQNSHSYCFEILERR

[2] = target: T1, E. coli dihydrofolate reductase (ecDHFR)
[3] = target: T1, E. coli dihydrofolate reductase (ecDHFR); test: Isothermal titration calorimetry; format: binding
[4] = target: T1, E. coli dihydrofolate reductase (ecDHFR); test: Steady state kinetics of ecDHFR inhibition; format: biochemical; conditions: for α value (cooperative inhibition by MFM and pABG): Dixon plots, DHF 7.5 μM, α > 1 = negative cooperativity; for Ki: 30 °C, pH 7.0; for mode of inhibition: versus DHF, Lineweaver-Burk plot
[5] = target: T1, E. coli dihydrofolate reductase (ecDHFR); test: biochemical; conditions: NMR
[6] = target: L. casei DHFR; conditions: cited from earlier work
[7] = Ki, Lineweaver-Burk slope vs inhibitor concentration, NADPH 70 μM

SMILES: Cc1cc(C(=O)CCC(=O)O)c(C)c(C)c1C [2,3,4,5-tetramethyl, 3-(2,3,4,5-tetramethylbenozyl)propionate]
- ILOE signals with metformin (co-binding) [1]: stronger ILOE signals

SMILES: COc1ccc(C(=O)NCC(=O)O)cc1OC [3,4-Dimethoxyhippurate, 3,4-dimethoxyhippurate]
- ILOE signals with metformin (co-binding) [1]: weak ILOE cross peaks

SMILES: CC(C)c1ccc(C(=O)CCC(=O)O)cc1 [4-isopropyl, 3-(4-isopropylbenozyl)propionate]
- ILOE signals with metformin (co-binding) [1]: stronger ILOE signals

SMILES: Cc1ccc(C(=O)NCC(=O)O)cc1 [4-methylhippurate]
- ILOE signals with metformin (co-binding) [1]: ILOE signals were obtained

SMILES: Cc1ccc(C(=O)CCC(=O)O)c(C)c1 [DMBP, 3-(2,4-dimethylbenzoyl)propionate]
- Kd ([2]; NMR serial titration, no other ligand): 5.4 mM

SMILES: O=C(O)c1cc(-c2ccc(F)cc2F)ccc1O [Diflunisal]
- transferred NOE signals ([1]; screening buffer, 25 °C): transferred NOE signals consistent with binding

SMILES: CN(C)C(=N)N=C(N)N [Metformin]
- ΔH ([3]; ITC competitive displacement by DHF, NADP+ present, initial fit with variable ΔH): -1.1 ± 3.2 kcal/mol
- Kd ([3]; mean Kd, stated as mean of NMR and ITC displacement studies): 17.9 mM
- α value (cooperative inhibition by MFM and pABG) ([4]; NADPH 70 μM): 3.3 ± 1.3
- Ki [4, 7]: 24 ± 7 mM
- Ki ([4]; Ki, non-linear global fit of all the data (SAS), NADPH): 17.9 mM
- mode of inhibition ([4]; listed as MFM): competitive binding; also recorded: competitive inhibition
- affinity relative to DAP (fold weaker) ([2]; ecDHFR affinity for MFM versus DAP): ~ 20 fold
- Kd ([5]; Ile5 resonance, no other ligand, pH 7.2 in D2O): 14.8 mM and 15.9 mM
- Kd ([5]; Ile50, 75 mM DMBP present): 7 ± 0.16 mM
- Kd ([5]; Ile50′ (MFM-sensitive resonance), 50 mM pABG present): 6.89 ± 0.56 mM
- Kd ([5]; Ile50′, 50 mM pABG and 2 mM NADP+ present): 5.27 ± 0.71 mM
- Kd ([5]; Ile61′ (MFM-sensitive resonance), 50 mM pABG present): 5.36 ± 1.15 mM

SMILES: [H]/N=C(/N)N/C(=N/[H])NCCc1ccccc1 [Phenformin, phenformin]
- Kd ([3]; Kd, ITC direct titration, cofactor NADP+, pH 7.0, 25° C): 0.188 ± 0.018 mM
- Kd ([3]; Kd, ITC direct titration, cofactor NADPH, pH 7.0, 25° C): 0.098 ± 0.007 mM
- Kd ([3]; Kd, ITC direct titration, no cofactor, pH 7.0, 25° C): 0.716 ± 0.045 mM
- Ki [4, 7]: 0.17 ± 0.02 mM
- inhibition constant relative to metformin (fold lower) ([4]; phenformin Ki versus metformin Ki): 100 fold
- mode of inhibition [4]: competitive inhibition

SMILES: O=C(O)CNC(=O)c1ccccc1 [hippurate, N-benzoylglycine]
- ILOE signals with metformin (co-binding) [1]: neither transferred NOE nor ILOE MFM-hippurate cross peaks were observed

SMILES: Nc1ccc(C(=O)N[C@@H](CCC(=O)O)C(=O)O)cc1 [pABG, p-aminobenzoyl-L-glutamate]
- α value (cooperative inhibition by MFM and pABG) ([4]; NADPH 70 μM): 3.3 ± 1.3
- Kd/Ki ratio ([4]; Kd (NMR, no cofactor) over Ki (NADPH present)): 4.4
- Ki ([4]; Lineweaver-Burk slope vs inhibitor concentration, NADPH 70 μM): 1.8 ± 0.3 mM
- Ki ([4]; non-linear global fit of all the data (SAS), NADPH): 1.3 ± 0.2 mM
- ILOE signals with metformin (co-binding) [1]: ILOE signals connecting the MFM methyl resonances with the pABG aromatic resonances were present
- Kd ([2]; NMR, Ile50 resonance, no other ligand, pH 7.2 in D2O): 7.64 ± 0.53 mM
- Kd ([2]; NMR, Ile61 resonance, no other ligand, pH 7.2 in D2O): 8.09 ± 0.52 mM
- Kd ([2]; NMR, Ile94 resonance, no other ligand, pH 7.2 in D2O): 8 ± 0.37 mM
- Kd ([2]; read-out: Kd (mean), mean of NMR values from Ile50, Ile61, Ile94): 7.9 mM and 7.91 mM
- Kd ratio in the absence and presence of NADPH [6]: 4.5
